From paper PMC3815585 (European journal of medicinal chemistry, 2008) come the findings set out here.

One series concerns Poly(d(A-T))2. The series can be described thus: DNA thermal melting. The series is classed as binding. The settings on record: from ΔTm values; for Reduction in DNA affinity: compared within the bis-guanidine series.
Another series concerns T.b.r. strain STIB900. The series can be described thus: STIB900 acute mouse model for African trypanosomiasis. The format is in vivo.
Series [1] concerns Trypanosoma brucei rhodesiense (T.b.r.) strain STIB900. The series is classed as cell-based. As to conditions: RHODESIENSE|STIB900, read-out: T.b.r. IC50.

With `N=C(N)Nc1ccc(-c2ccc(-c3ccc(NC(=N)N)cc3)cc2)cc1` [6a, 4,4″-Bis-guanidino-[1,1′;4′,1″]terphenyl], the “Reduction of DNA affinity from that of the corresponding diamidine V” value in the series on Poly(d(A-T))2 is recorded as “about 20%”. Besides, the “Cures (mice that survived 60 days and are parasite-free)” value in the series on T.b.r. strain STIB900 (20 mg/kg ip for 4 days) was “none gave cures”. `N=C(N)Nc1ccc(-c2ccc(-c3ccc(NC(=N)N)cn3)cc2)nc1` [6b, 1,4-Bis-[5′-guanidinopyridin-2′-yl]phenylene]: the “Reduction in DNA affinity” value in the series on Poly(d(A-T))2 was “approximately one third”. For the compound `CCOC(=O)/N=C(\N)Nc1ccc(-c2ccc(-c3ccc(N/C(N)=N/C(=O)OCC)cc3)cc2)cc1` [8a, 4,4″-Bis(N′-ethoxycarbonyl)-guanidino-[1,1′;4′,1″]terphenyl], the “Cures (mice that survived 60 days and are parasite-free)” value in the series on T.b.r. strain STIB900 (25 mg/kg po for 4 days) is reported as “no cures were achieved”. Take `CCOC(=O)/N=C(\NC)Nc1ccc(-c2ccc(-c3ccc(N/C(=N/C(=O)OCC)NC)cc3)cc2)cc1` [8c, 4,4″-Bis(N′-ethoxycarbonyl-N″-methyl)-guanidino-[1,1′;4′,1″]terphenyl]: the “Cures (mice that survived 60 days and are parasite-free)” value with T.b.r. strain STIB900 (25 mg/kg po for 4 days) is reported as “no cures were achieved”. Turning to `CNC(=N)Nc1ccc(-c2ccc(-c3ccc(NC(=N)NC)cc3)cc2)cc1` [9c, 4,4″-Bis(N′-methyl)-guanidino-[1,1′;4′,1″]terphenyl], the “Cures (mice that survived 60 days and are parasite-free)” value with T.b.r. strain STIB900 (20 mg/kg ip for 4 days) was “none gave cures”. As to `CNC(=N)Nc1ccc(-c2ccc(-c3ccc(NC(=N)NC)cn3)cc2)nc1` [9d, 1,4-Bis-[5′-(N′-methylguanidino)-pyridin-2′-yl]-phenylene], the “Acute toxicity in treated mice” value in the series with T.b.r. strain STIB900 (20 mg/kg ip) is reported as “showed acute toxicity”. In addition, in the series with T.b.r. strain STIB900 (20 mg/kg ip for 4 days), the “Cures (mice that survived 60 days and are parasite-free)” value is “none gave cures”.

As for `CC(C)NC(=N)Nc1ccc(-c2ccc(-c3ccc(NC(=N)NC(C)C)cc3)cc2)cc1` [9e, 4,4″-Bis(N′-isopropyl)-guanidino-[1,1′;4′,1″]terphenyl], the “Reduction in DNA affinity” value with Poly(d(A-T))2 is reported as “approximately one third”. Turning to `N=C(N)c1ccc(-c2ccc(-c3ccc(C(=N)N)cc3)cc2)cc1` [V], the IC50 in series [1] worked out at 5 nM.

A word on the IC50: it is the concentration at which inhibition is half-maximal.
